We go through 5 compounds from patent publication US20230265151A1, “GIP/GLP1 CO-AGONIST COMPOUNDS” (priority 2020, published 2023).

Each structure is given as a SMILES string. Like-named read-outs stand apart in the source and are kept apart here.

One experiment has as its target T1, hGIPR (Homo sapiens, UniProt P48546).
T1 construct: expressed in transfected cells
T1 sequence (P48546 22-466): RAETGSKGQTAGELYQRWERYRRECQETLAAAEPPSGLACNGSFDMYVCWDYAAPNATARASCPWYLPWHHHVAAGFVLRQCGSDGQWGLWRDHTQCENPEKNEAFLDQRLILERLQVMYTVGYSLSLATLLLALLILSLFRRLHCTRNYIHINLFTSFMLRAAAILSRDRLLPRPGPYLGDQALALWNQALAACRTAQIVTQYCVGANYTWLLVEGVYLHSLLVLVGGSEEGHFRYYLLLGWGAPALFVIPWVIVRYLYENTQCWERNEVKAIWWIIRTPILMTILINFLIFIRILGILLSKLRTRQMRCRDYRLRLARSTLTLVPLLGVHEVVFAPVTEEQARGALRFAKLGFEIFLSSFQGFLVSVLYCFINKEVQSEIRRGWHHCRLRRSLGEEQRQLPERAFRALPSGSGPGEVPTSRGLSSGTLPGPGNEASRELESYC
Put plainly: Functional cAMP formation (HTRF) in HEK-293 clonal cells expressing hGIPR, 0.1% bovine casein, without or with 1.0% human serum albumin. To be noted: for EC50: hGIPR EC50, nM (SEM, n), geometric mean. Format: cell-based. The protocol:
(§1) After a 30-min incubation at 37° C., the resulting increase in intracellular cAMP is quantitatively determined using a CisBio cAMP Dynamic 2 HTRF Assay Kit (62AM4PEJ). Briefly, cAMP levels within the cell are detected by adding the cAMP-d2 conjugate in cell lysis buffer (10 µL) followed by the antibody anti-cAMP-Eu^3+-Cryptate, also in cell lysis buffer (10 µL). The resulting competitive assay is incubated for at least 60 min at room temperature, and then is detected using a PerkinElmer Envision® instrument with excitation at 320 nm and emission at 665 nm and 620 nm. Envision units (emission at 665 nm/620 nm* 10,000) are inversely proportional to the amount of cAMP present and are converted to nM cAMP per well us-ing a cAMP standard curve. […] A relative EC50 value and percent top (Emax) are derived by non-linear regression analysis using the percent maximal response vs. the concentration of peptide added, fitted to a four-parameter logistic equation.
(Changes in cAMP serve as a functional read-out for many G protein-coupled receptors.)

A further experiment concerns the target T2, hGCGR (Homo sapiens, UniProt P47871).
T2 construct: expressed in transfected cells
Put plainly: Functional cAMP formation (HTRF) in HEK-293 clonal cells expressing hGCGR, 0.1% bovine casein, without or with 1.0% human serum albumin. Format: cell-based. The conditions noted are these: geometric mean. The protocol:
as §1

Where [1] appears, read: HEK293, percent of maximal response to GIP(1-42)NH2, 37° C., 0.1% bovine casein, arithmetic mean, read-out: hGIPR Emax, % ± SEM.
Where [2] appears, read: cAMP, incubated at 37° C., 0.1% bovine casein (no human serum albumin), read-out: hGCGR EC50, nM (SEM, n).
[3] abbreviates: 0.1% bovine casein and 1.0% human serum albumin, 37° C., read-out: hGCGR EC50, nM (SEM, n).

T2 sequence (P47871 26-477): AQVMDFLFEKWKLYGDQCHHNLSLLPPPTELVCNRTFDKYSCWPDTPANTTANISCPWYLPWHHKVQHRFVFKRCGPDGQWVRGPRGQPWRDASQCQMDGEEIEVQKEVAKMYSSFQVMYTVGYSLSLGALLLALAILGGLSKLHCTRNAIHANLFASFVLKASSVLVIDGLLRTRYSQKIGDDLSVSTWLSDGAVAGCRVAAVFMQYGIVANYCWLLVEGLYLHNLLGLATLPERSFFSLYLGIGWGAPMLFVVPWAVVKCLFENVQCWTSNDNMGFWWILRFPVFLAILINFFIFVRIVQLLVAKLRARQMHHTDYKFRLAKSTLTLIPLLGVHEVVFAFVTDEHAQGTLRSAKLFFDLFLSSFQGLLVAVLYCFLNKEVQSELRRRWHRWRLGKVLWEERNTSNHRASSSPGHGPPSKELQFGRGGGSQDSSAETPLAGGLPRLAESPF

The Emax is the size of the effect at its maximum, as opposed to the concentration needed. Usually EC50 stands for the concentration at which the effect is half-maximal. `CC[C@H](C)[C@H](NC(=O)[C@H](CC(C)C)NC(=O)[C@](C)(Cc1ccc(O)cc1)NC(=O)[C@@H](CCC(=O)O)NC(=O)[C@@H](NC(=O)[C@H](Cc1ccccc1)NC(=O)[C@H](CCC(=O)O)NC(=O)C(C)(C)NC(=O)[C@H](CCC(N)=O)NC(=O)[C@H](C)NC(=O)[C@H](CCCCNC(=O)COCCOCCNC(=O)COCCOCCNC(=O)CC[C@H](NC(=O)CCCCCCCCCCCCC(=O)O)C(=O)O)NC(=O)[C@H](CCCN)NC(=O)[C@H](CC(=O)O)NC(=O)[C@H](CC(C)C)NC(=O)[C@](C)(CC(C)C)NC(=O)[C@@H](NC(=O)C(C)(C)NC(=O)[C@@H](NC(=O)[C@H](CC(=O)O)NC(=O)[C@H](CO)NC(=O)[C@@H](NC(=O)[C@](C)(Cc1ccccc1)NC(=O)[C@@H](NC(=O)CNC(=O)[C@H](CCC(=O)O)NC(=O)C(C)(C)NC(=O)[C@@H](N)Cc1ccc(O)cc1)[C@@H](C)O)[C@@H](C)O)C(C)C)[C@@H](C)CC)[C@@H](C)CC)C(=O)N[C@@H](CCC(=O)O)C(=O)NCC(=O)NCC(=O)N[C@@H](CCCCNC(=O)COCCOCCNC(=O)COCCOCCNC(=O)CC[C@H](NC(=O)CCCCCCCCCCCCC(=O)O)C(=O)O)C(=O)N[C@@H](CO)C(=O)N[C@@H](CO)C(=O)NCC(=O)N[C@@H](C)C(=O)N1CCC[C@H]1C(=O)N1CCC[C@H]1C(=O)N1CCC[C@H]1C(=O)N[C@@H](CO)C(N)=O` [Example 180]: the maximum response (Emax) on hGIPR (setting [1]) stood at 86.8%. At hGCGR (setting [2]), the half-maximal effective concentration (EC50) is over 9950 nM.

Consider `CC[C@H](C)[C@H](NC(=O)[C@H](CC(C)C)NC(=O)[C@](C)(Cc1ccc(O)cc1)NC(=O)[C@@H](CCC(=O)O)NC(=O)[C@@H](NC(=O)[C@H](Cc1ccccc1)NC(=O)[C@H](CCC(=O)O)NC(=O)C(C)(C)NC(=O)[C@H](CCC(N)=O)NC(=O)[C@H](C)NC(=O)[C@H](CCCCNC(=O)COCCOCCNC(=O)COCCOCCNC(=O)CC[C@H](NC(=O)CCCCCCCCCOc1ccc(C(=O)O)cc1)C(=O)O)NC(=O)[C@H](CCCN)NC(=O)[C@H](CC(=O)O)NC(=O)[C@H](CC(C)C)NC(=O)[C@](C)(CC(C)C)NC(=O)[C@@H](NC(=O)[C@H](CO)NC(=O)[C@H](Cc1ccc2ccccc2c1)NC(=O)[C@H](CC(=O)O)NC(=O)[C@H](CO)NC(=O)[C@@H](NC(=O)[C@](C)(Cc1ccccc1F)NC(=O)[C@@H](NC(=O)CNC(=O)[C@H](CCC(=O)O)NC(=O)C(C)(C)NC(=O)[C@@H](N)Cc1ccc(O)cc1)[C@@H](C)O)[C@@H](C)O)[C@@H](C)CC)[C@@H](C)CC)C(=O)N[C@@H](CCCCNC(=O)COCCOCCNC(=O)COCCOCCNC(=O)CC[C@H](NC(=O)CCCCCCCCCOc1ccc(C(=O)O)cc1)C(=O)O)C(=O)NCC(=O)NCC(=O)N1CCC[C@H]1C(=O)N[C@@H](CO)C(=O)N[C@@H](CO)C(=O)NCC(=O)N[C@@H](C)C(=O)N1CCC[C@H]1C(=O)N1CCC[C@H]1C(=O)N1CCC[C@H]1C(=O)N[C@@H](CO)C(N)=O` [Example 282], for which, at hGIPR (HEK293, read-out: hGIPR Emax, % ± SEM, 0.1% bovine casein and 1.0% human serum albumin, 37° C., percent of maximal response to GIP(1-42)NH2), the Emax came to 84.4%. The EC50 at hGIPR (0.1% bovine casein and 1.0% human serum albumin, 37° C.) is 1.44 nM; at hGIPR (cAMP, 37° C., 0.1% bovine casein (no human serum albumin)) it was 0.0193 nM; at hGCGR (hGCGR EC50, nM (SEM, n), 0.1% bovine casein and 1.0% human serum albumin, 37° C.) it was over 9950 nM; on hGCGR (hGCGR EC50, nM (SEM, n), cAMP, 37° C., 0.1% bovine casein (no human serum albumin)) it was over 9950 nM.

Consider `CC[C@H](C)[C@H](NC(=O)[C@H](CC(C)C)NC(=O)[C@](C)(Cc1ccc(O)cc1)NC(=O)[C@@H](CCC(=O)O)NC(=O)[C@@H](NC(=O)[C@H](Cc1ccccc1)NC(=O)[C@H](CCC(=O)O)NC(=O)C(C)(C)NC(=O)[C@H](CCC(N)=O)NC(=O)[C@H](C)NC(=O)[C@H](CCCCNC(=O)COCCOCCNC(=O)COCCOCCNC(=O)CC[C@H](NC(=O)CCCCCCCCCCCCC(=O)O)C(=O)O)NC(=O)CNC(=O)[C@H](CC(=O)O)NC(=O)[C@H](CC(C)C)NC(=O)[C@](C)(CC(C)C)NC(=O)[C@@H](NC(=O)[C@H](CO)NC(=O)[C@H](Cc1ccncc1)NC(=O)[C@H](CC(=O)O)NC(=O)[C@H](CO)NC(=O)[C@@H](NC(=O)[C@](C)(Cc1ccccc1F)NC(=O)[C@@H](NC(=O)CNC(=O)[C@H](CCC(=O)O)NC(=O)C(C)(C)NC(=O)[C@@H](N)Cc1ccc(O)cc1)[C@@H](C)O)[C@@H](C)O)[C@@H](C)CC)[C@@H](C)CC)C(=O)N[C@@H](CCC(=O)O)C(=O)NCC(=O)NCC(=O)N[C@@H](CCCCNC(=O)COCCOCCNC(=O)COCCOCCNC(=O)CC[C@H](NC(=O)CCCCCCCCCCCCC(=O)O)C(=O)O)C(=O)N[C@@H](CO)C(=O)N[C@@H](CO)C(=O)NCC(=O)N[C@@H](C)C(=O)N1CCC[C@H]1C(=O)N1CCC[C@H]1C(=O)N1CCC[C@H]1C(=O)N[C@@H](CO)C(N)=O` [Example 101], for which the Emax at hGIPR (setting [1]) was 92.1%. Moreover, the EC50 at hGCGR (setting [2]) is over 9950 nM.

Regarding `CC[C@H](C)[C@H](NC(=O)[C@H](CC(C)C)NC(=O)[C@](C)(Cc1ccc(O)cc1)NC(=O)[C@@H](CCC(=O)O)NC(=O)[C@@H](NC(=O)[C@H](Cc1ccccc1)NC(=O)[C@H](CCC(=O)O)NC(=O)C(C)(C)NC(=O)[C@H](CCC(N)=O)NC(=O)[C@H](C)NC(=O)[C@H](CCCCNC(=O)COCCOCCNC(=O)COCCOCCNC(=O)CC[C@H](NC(=O)CCCCCCCCCCCCC(=O)O)C(=O)O)NC(=O)[C@H](CCCN)NC(=O)[C@H](CC(=O)O)NC(=O)[C@H](CC(C)C)NC(=O)[C@](C)(CC(C)C)NC(=O)[C@@H](NC(=O)[C@H](CO)NC(=O)[C@@H](NC(=O)[C@H](CC(=O)O)NC(=O)[C@H](CO)NC(=O)[C@@H](NC(=O)[C@](C)(Cc1ccccc1F)NC(=O)[C@@H](NC(=O)CNC(=O)[C@H](CCC(=O)O)NC(=O)C(C)(C)NC(=O)[C@@H](N)Cc1ccc(O)cc1)[C@@H](C)O)[C@@H](C)O)C1CCCCC1)[C@@H](C)CC)[C@@H](C)CC)C(=O)N[C@@H](CCC(=O)O)C(=O)NCC(=O)NCC(=O)N[C@@H](CCCCNC(=O)COCCOCCNC(=O)COCCOCCNC(=O)CC[C@H](NC(=O)CCCCCCCCCCCCC(=O)O)C(=O)O)C(=O)N[C@@H](CO)C(=O)N[C@@H](CO)C(=O)NCC(=O)N[C@@H](C)C(=O)N1CCC[C@H]1C(=O)N1CCC[C@H]1C(=O)N1CCC[C@H]1C(=O)N[C@@H](CO)C(N)=O` [Example 97], the Emax on hGIPR (HEK293, 0.1% bovine casein and 1.0% human serum albumin, 37° C., percent of maximal response to GIP(1-42)NH2, read-out: hGIPR Emax, % ± SEM) was 93.1%; on hGIPR (setting [1]), 97 ± 1.53%. In addition, the EC50 at hGCGR (setting [3]) and on hGCGR (setting [2]) was over 9950 nM throughout.

As to `CC[C@H](C)[C@H](NC(=O)[C@H](CC(C)C)NC(=O)[C@](C)(Cc1ccc(O)cc1)NC(=O)[C@@H](CCC(=O)O)NC(=O)[C@@H](NC(=O)[C@](C)(Cc1ccccc1)NC(=O)[C@H](CCC(=O)O)NC(=O)C(C)(C)NC(=O)[C@H](CCC(N)=O)NC(=O)[C@H](C)NC(=O)[C@H](CCCCNC(=O)COCCOCCNC(=O)COCCOCCNC(=O)CC[C@H](NC(=O)CCCCCCCCCCCCC(=O)O)C(=O)O)NC(=O)[C@H](CCCN)NC(=O)[C@H](CC(=O)O)NC(=O)[C@H](CC(C)C)NC(=O)[C@](C)(CC(C)C)NC(=O)[C@@H](NC(=O)[C@H](CO)NC(=O)[C@@H](NC(=O)[C@H](CC(=O)O)NC(=O)[C@H](CO)NC(=O)[C@@H](NC(=O)[C@](C)(Cc1ccccc1F)NC(=O)[C@@H](NC(=O)CNC(=O)[C@H](CCC(=O)O)NC(=O)C(C)(C)NC(=O)[C@@H](N)Cc1ccc(O)cc1)[C@@H](C)O)[C@@H](C)O)C(C)C)[C@@H](C)CC)[C@@H](C)CC)C(=O)N[C@@H](CCC(=O)O)C(=O)NCC(=O)NCC(=O)N[C@@H](CCCCNC(=O)COCCOCCNC(=O)COCCOCCNC(=O)CC[C@H](NC(=O)CCCCCCCCCCCCC(=O)O)C(=O)O)C(=O)N[C@@H](CO)C(=O)N[C@@H](CO)C(=O)NCC(=O)N[C@@H](C)C(=O)N1CCC[C@H]1C(=O)N1CCC[C@H]1C(=O)N1CCC[C@H]1C(=O)N[C@@H](CO)C(N)=O` [Example 92], the EC50 at hGCGR (setting [3]) and on hGCGR (setting [2]) was over 9950 nM throughout.
